Measurements as given in ChEMBL document CHEMBL1149714 (2007).
Values after ≈ are worked out from the molar mass of the structure shown.

Experiments:
Type in all cases: functional
Enterobacter cloacae [1] = assay: Antibacterial activity against Enterobacter cloacae ATCC 13047 after 20 hrs by agar dilution method; conditions: ATCC 13047, 20 h
Escherichia coli [2] = assay: Antibacterial activity against Escherichia coli NIHJJC2 after 20 hrs by agar dilution method
Haemophilus influenzae [3] = assay: Antibacterial activity against Haemophilus influenzae ATCC 49766 after 20 hrs by agar dilution method; conditions: ATCC 49766, 20 h
Pseudomonas aeruginosa [4] = assay: Antibacterial activity against AmpC hyperproducing Pseudomonas aeruginosa SR24-12 after 20 hrs by agar dilution method
Pseudomonas aeruginosa [5] = assay: Antibacterial activity against CAZ resistant Pseudomonas aeruginosa SR24-12 infected in mouse after 7 days; conditions: 168 h
Pseudomonas aeruginosa [6] = assay: Antibacterial activity against Pseudomonas aeruginosa SR24 after 20 hrs by agar dilution method
Pseudomonas aeruginosa [7] = assay: Antibacterial activity against Imipenem resistant Pseudomonas aeruginosa SR-6554 after 20 hrs by agar dilution method
Moraxella catarrhalis = assay: Antibacterial activity against Moraxella catarrhalis ATCC 43617 after 20 hrs by agar dilution method; conditions: ATCC 43617, 20 h
Staphylococcus aureus = assay: Antibacterial activity against […] Staphylococcus aureus SMITH after 20 hrs by agar dilution method
Pseudomonas aeruginosa [8] = assay: Antibacterial activity against Pseudomonas aeruginosa SR-5393 after 20 hrs by agar dilution method
Haemophilus influenzae [9] = assay: Antibacterial activity against beta-lactamase negative ampicillin resistant Haemophilus influenzae SR-11435 after 20 hrs by agar dilution method
Pseudomonas aeruginosa [10] = assay: Antibacterial activity against CAZ susceptible Pseudomonas aeruginosa SR24 infected in mouse after 7 days; conditions: 168 h
Enterobacter cloacae [11] = assay: Antibacterial activity against AmpC producing Enterobacter cloacae SR-4321 after 20 hrs by agar dilution method
Escherichia coli [12] = assay: Antibacterial activity against Toho 2 (ESBL) producing Escherichia coli SR-21003 after 20 hrs by agar dilution method
Streptococcus pneumoniae = assay: Antibacterial activity against penicillin resistant Streptococcus pneumoniae SR-16675 after 20 hrs by agar dilution method

Row | SMILES | MIC (Enterobacter cloacae [1]) | MIC (Escherichia coli [2]) | MIC (Haemophilus influenzae [3]) | MIC (Pseudomonas aeruginosa [4]) | ED50 (Pseudomonas aeruginosa [5]) | MIC (Pseudomonas aeruginosa [6]) | MIC (Pseudomonas aeruginosa [7]) | MIC (Moraxella catarrhalis) | MIC (Staphylococcus aureus) | MIC (Pseudomonas aeruginosa [8]) | MIC (Haemophilus influenzae [9]) | ED50 (Pseudomonas aeruginosa [10]) | MIC (Enterobacter cloacae [11]) | MIC (Escherichia coli [12]) | MIC (Streptococcus pneumoniae)
1 | CC(C)(O/N=C(\C(=O)N[C@@H]1C(=O)N2C(C(=O)[O-])=C(C[n+]3ccccc3)CS[C@H]12)c1csc(N)n1)C(=O)O [CEFTAZIDIME] | 8 mg/L (≈ 14.6 µM) | 0.25 mg/L (≈ 0.457 µM) | 0.063 mg/L (≈ 0.115 µM) | 64 mg/L (≈ 117 µM) | 127 mg/kg | 0.5 mg/L (≈ 0.915 µM) | 32 mg/L (≈ 58.5 µM) | 0.063 mg/L (≈ 0.115 µM) | 8 mg/L (≈ 14.6 µM) | 2 mg/L (≈ 3.66 µM) | 0.125 mg/L (≈ 0.229 µM) | 2.83 mg/kg | 64 mg/L (≈ 117 µM) | 1 mg/L (≈ 1.83 µM) | 8 mg/L (≈ 14.6 µM)
2 | CNCCCn1ccc2c1ccc[n+]2CC1=C(C(=O)[O-])N2C(=O)[C@@H](NC(=O)/C(=N\O[C@H](C)C(=O)O)c3nc(N)sc3Cl)[C@H]2SC1 | 1 mg/L (≈ 1.48 µM) | 0.5 mg/L (≈ 0.738 µM) | 0.063 mg/L (≈ 0.093 µM) | 4 mg/L (≈ 5.91 µM) | – | 1 mg/L (≈ 1.48 µM) | 16 mg/L (≈ 23.6 µM) | 0.032 mg/L (≈ 0.0473 µM) | 2 mg/L (≈ 2.95 µM) | 4 mg/L (≈ 5.91 µM) | 0.25 mg/L (≈ 0.369 µM) | – | 4 mg/L (≈ 5.91 µM) | 4 mg/L (≈ 5.91 µM) | 4 mg/L (≈ 5.91 µM)
3 | CO/N=C(\C(=O)N[C@@H]1C(=O)N2C(C(=O)[O-])=C(C[N+]3(C)CCCC3)CS[C@H]12)c1csc(N)n1 | – | 0.063 mg/L (≈ 0.131 µM) | 0.032 mg/L (≈ 0.0666 µM) | 32 mg/L (≈ 66.6 µM) | – | 0.5 mg/L (≈ 1.04 µM) | 64 mg/L (≈ 133 µM) | 0.5 mg/L (≈ 1.04 µM) | 2 mg/L (≈ 4.16 µM) | 4 mg/L (≈ 8.32 µM) | 0.5 mg/L (≈ 1.04 µM) | – | – | 4 mg/L (≈ 8.32 µM) | 2 mg/L (≈ 4.16 µM)
4 | C=C(O/N=C(\C(=O)N[C@@H]1C(=O)N2C(C(=O)[O-])=C(C[n+]3cccc4c3ccn4CCCNC)CS[C@H]12)c1nc(N)sc1Cl)C(=O)O | 0.25 mg/L (≈ 0.37 µM) | 0.25 mg/L (≈ 0.37 µM) | 0.032 mg/L (≈ 0.0474 µM) | 8 mg/L (≈ 11.8 µM) | – | 2 mg/L (≈ 2.96 µM) | 32 mg/L (≈ 47.4 µM) | 0.016 mg/L (≈ 0.0237 µM) | 0.5 mg/L (≈ 0.741 µM) | 8 mg/L (≈ 11.8 µM) | 0.063 mg/L (≈ 0.0933 µM) | – | 1 mg/L (≈ 1.48 µM) | 1 mg/L (≈ 1.48 µM) | 2 mg/L (≈ 2.96 µM)
5 | CNCCCn1cnc2c1ccc[n+]2CC1=C(C(=O)[O-])N2C(=O)[C@@H](NC(=O)/C(=N\OC(C)(C)C(=O)O)c3csc(N)n3)[C@H]2SC1 | 4 mg/L (≈ 6.08 µM) | 0.5 mg/L (≈ 0.76 µM) | – | > 128 mg/L | – | 1 mg/L (≈ 1.52 µM) | 128 mg/L (≈ 195 µM) | – | – | 4 mg/L (≈ 6.08 µM) | – | – | 128 mg/L (≈ 195 µM) | 2 mg/L (≈ 3.04 µM) | –
6 | CNCCCn1ccc2c1ccc[n+]2CC1=C(C(=O)[O-])N2C(=O)[C@@H](NC(=O)/C(=N\O[C@@H](C)C(=O)O)c3csc(N)n3)[C@H]2SC1 | 0.25 mg/L (≈ 0.389 µM) | 0.063 mg/L (≈ 0.098 µM) | 0.032 mg/L (≈ 0.0498 µM) | 32 mg/L (≈ 49.8 µM) | – | 0.5 mg/L (≈ 0.778 µM) | 16 mg/L (≈ 24.9 µM) | 0.125 mg/L (≈ 0.194 µM) | 2 mg/L (≈ 3.11 µM) | 2 mg/L (≈ 3.11 µM) | 0.063 mg/L (≈ 0.098 µM) | – | 16 mg/L (≈ 24.9 µM) | 1 mg/L (≈ 1.56 µM) | 8 mg/L (≈ 12.4 µM)
7 | CNCCCn1ccc2c1ccc[n+]2CC1=C(C(=O)[O-])N2C(=O)[C@@H](NC(=O)/C(=N\O[C@@H](CO)C(=O)O)c3nc(N)sc3Cl)[C@H]2SC1 | 0.25 mg/L (≈ 0.361 µM) | 0.25 mg/L (≈ 0.361 µM) | 0.063 mg/L (≈ 0.0909 µM) | 4 mg/L (≈ 5.77 µM) | – | 1 mg/L (≈ 1.44 µM) | 16 mg/L (≈ 23.1 µM) | 0.032 mg/L (≈ 0.0462 µM) | 2 mg/L (≈ 2.89 µM) | 4 mg/L (≈ 5.77 µM) | 0.125 mg/L (≈ 0.18 µM) | – | 2 mg/L (≈ 2.89 µM) | 2 mg/L (≈ 2.89 µM) | 8 mg/L (≈ 11.5 µM)
8 | CNCCCn1ccc2c1ccc[n+]2CC1=C(C(=O)[O-])N2C(=O)[C@@H](NC(=O)/C(=N\O[C@@H](C)C(=O)O)c3nsc(N)n3)[C@H]2SC1 | 0.25 mg/L (≈ 0.388 µM) | 0.031 mg/L (≈ 0.0482 µM) | 0.031 mg/L (≈ 0.0482 µM) | 16 mg/L (≈ 24.9 µM) | – | 0.5 mg/L (≈ 0.777 µM) | 4 mg/L (≈ 6.21 µM) | 0.5 mg/L (≈ 0.777 µM) | 2 mg/L (≈ 3.11 µM) | 2 mg/L (≈ 3.11 µM) | 0.25 mg/L (≈ 0.388 µM) | – | 8 mg/L (≈ 12.4 µM) | 8 mg/L (≈ 12.4 µM) | 4 mg/L (≈ 6.21 µM)
9 | CNCCCn1ccc2c1ccc[n+]2CC1=C(C(=O)[O-])N2C(=O)[C@@H](NC(=O)/C(=N\O[C@@H](C)C(=O)O)c3nc(N)sc3Cl)[C@H]2SC1 | 0.5 mg/L (≈ 0.738 µM) | 0.25 mg/L (≈ 0.369 µM) | 0.032 mg/L (≈ 0.0473 µM) | 4 mg/L (≈ 5.91 µM) | 5.32 mg/kg | 1 mg/L (≈ 1.48 µM) | 8 mg/L (≈ 11.8 µM) | 0.016 mg/L (≈ 0.0236 µM) | 1 mg/L (≈ 1.48 µM) | 2 mg/L (≈ 2.95 µM) | 0.063 mg/L (≈ 0.093 µM) | 1.4 mg/kg | 2 mg/L (≈ 2.95 µM) | 4 mg/L (≈ 5.91 µM) | 2 mg/L (≈ 2.95 µM)
